Data published in patent publication US11987578B1, “7-(4-((5-(2-chlorobenzylideneamino)-2-thioxo-1,3,4-thiadiazol-3(2H)-yl)methyl)piperazin-1-yl)-1-cyclopropyl-6-fluoro-4-oxo-1,4-dihydroquinoline-3-carboxylic acid as an anti-inflammatory compound” (KING FAISAL UNIVERSITY, priority 2023, dated 2024).
Where two headings read alike, the source gives them in different places.

Key:
Bovine Serum Albumin = Bovine Serum Albumin (Bos taurus, UniProt P02769); assay: Bovine Serum Albumin Assay (BSA), inhibition of heat-induced protein denaturation; format: biochemical
Bovine Serum Albumin, sequence (P02769 25-607): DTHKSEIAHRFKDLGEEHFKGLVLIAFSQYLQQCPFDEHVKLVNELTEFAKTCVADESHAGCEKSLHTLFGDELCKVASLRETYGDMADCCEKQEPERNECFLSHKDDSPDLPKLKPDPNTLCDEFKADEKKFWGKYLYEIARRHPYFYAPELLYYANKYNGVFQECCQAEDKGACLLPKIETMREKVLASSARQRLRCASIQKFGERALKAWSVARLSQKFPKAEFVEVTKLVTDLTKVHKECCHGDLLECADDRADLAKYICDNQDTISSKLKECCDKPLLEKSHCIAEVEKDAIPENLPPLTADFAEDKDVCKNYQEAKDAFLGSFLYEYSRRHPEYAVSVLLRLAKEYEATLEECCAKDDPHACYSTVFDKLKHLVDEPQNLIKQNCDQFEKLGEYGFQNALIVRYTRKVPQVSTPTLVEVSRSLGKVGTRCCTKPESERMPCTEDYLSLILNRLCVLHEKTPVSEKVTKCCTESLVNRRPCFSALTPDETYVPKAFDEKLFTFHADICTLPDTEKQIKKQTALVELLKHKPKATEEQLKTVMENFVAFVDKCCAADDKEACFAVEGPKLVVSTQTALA
Protocol: Bovine Serum Albumin Assay (BSA) In vitro-inflammatory activities of the tested samples were determined using a modified method of the BSA assay reported by Williams et al. BSA solution (0.4%, w/v) was prepared in Tris Buffered Saline. The pH was adjusted to 6.4 with glacial acetic acid. Different dilutions of 20, 40, 60, 80, and 100 μg/mL of 7-(4-((5-(2-chlorobenzylideneamino)-2-thioxo-1,3,4-thiadiazol-3(2H)-yl)methyl)piperazin-1-yl)-1-cyclopropyl-6-fluoro-4-oxo-1,4-dihydroquinoline-3-carboxylic acid stock solutions were added to test tubes containing 1 mL of 0.4%, w/v BSA buffer solution. Both negative (solvent) and positive (aspirin) controls were assayed in a similar manner. The solutions were then heated in a water bath at 72° C. for 10 minutes and cooled for 20 minutes under laboratory conditions. The turbidity of the solutions (level of protein precipitation) was measured at 660 nm in Spectrophotometer (V-770 UV-Visible/NIR Spectrophotometer). The percentage inhibition of precipitation (protein denaturation) was determined relative to the negative control using the following equation: [formula]

Structure (SMILES) | inhibition at 100 µg/mL (Bovine Serum Albumin; 100 μg/ml, 0.4% w/v BSA, pH 6.4, 72° C. for 10 minutes, turbidity at 660 nm, relative to negative control, read-out: percentage inhibition of precipitation (protein denaturation)) [%] | in vitro anti-inflammatory activity (Bovine Serum Albumin; BSA assay, result in words) | inhibition at 100 µg/mL (Bovine Serum Albumin; pH 6.4, read-out: percentage inhibition of precipitation (protein denaturation)) [%] | melting point [°C]
CC(=O)Oc1ccccc1C(=O)O [aspirin, reference compound] | 96.8 | – | – | –
O=C(O)c1cn(C2CC2)c2cc(N3CCN(Cn4nc(/N=C/c5ccccc5Cl)sc4=S)CC3)c(F)cc2c1=O [7-(4-((5-(2-chlorobenzylideneamino)-2-thioxo-1,3,4-thiadiazol-3(2H)-yl)methyl)piperazin-1-yl)-1-cyclopropyl-6-fluoro-4-oxo-1,4-dihydroquinoline-3-carboxylic acid] | – | considerable anti-inflammatory effect | 90.2 | 207 to 209
